One block for each molecule: values may come before it.
Key:
[1] = molecular target: T1, leukotriene D4 (longitudinal muscle of guinea pig ileum) (Cavia porcellus, UniProt Q2NNR5); experiment: Antagonism of leukotriene D4 contraction, longitudinal muscle of guinea pig ileum; assay type: cell-based; details: LTD4 concentration-response, 15 min preincubation, 1 μM indomethacin, 37° C., Arunlakshana and Schild method; for Kb: read-out: G.P. ILEUM pA2 (LTD4) (converted)
T1 construct: The longitudinal muscle was then carefully dissected from the circular muscle of the ileum; from tissue; host or cells: guinea pig terminal ileum, longitudinal muscle segments
T1 sequence (Q2NNR5 1-340): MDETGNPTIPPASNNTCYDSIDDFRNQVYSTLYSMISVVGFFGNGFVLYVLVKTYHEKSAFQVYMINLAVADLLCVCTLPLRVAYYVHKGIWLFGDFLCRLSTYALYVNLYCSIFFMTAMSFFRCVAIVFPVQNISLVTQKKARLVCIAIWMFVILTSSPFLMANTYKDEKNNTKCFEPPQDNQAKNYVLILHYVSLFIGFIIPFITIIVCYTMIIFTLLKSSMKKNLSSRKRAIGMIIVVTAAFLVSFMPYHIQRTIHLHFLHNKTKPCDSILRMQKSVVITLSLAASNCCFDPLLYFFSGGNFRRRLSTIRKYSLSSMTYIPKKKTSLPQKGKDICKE
Protocol: Longitudinal Muscle of Guinea Pig Ileum
Male, Hartley-Duncan, guinea pigs were sacrificed by cervical dislocation. The terminal portion of the ileum was removed, rinsed, and placed in Burn's modified Tyrode's solution. The longitudinal muscle was then carefully dissected from the circular muscle of the ileum. The longitudinal muscle was cut into 1-2 cm. segments which were placed in a tissue bath containing oxygenated Burn's modified Tyrode's solution warmed to 37° C. A tension of 1.0 gram was then placed on each segment of muscle. After equilibration for 1 hour, 1 μM Indomethacin was added to each bath. After 5 minutes, each tissue segment was then exposed to a concentration of 60 nM leukotriene D4. This response was then considered to be the initial maximal contraction that each segment will produce. After washing the tissue several times, over a 1 hour period, 1 μM lndomethacin was again added to each bath. After a 5 minute period the test agent or vehicle was added to the bath. After 15 minutes, a concentration-response curve was generated using cumulatively increasing concentrations of leukotriene D4. The concentration-response was then compared to the initial maximum contraction. A test compound was considered active, if at concentrations up to 100 μM, it produces a significant shift to the right of the concentration-response relationship to leukotriene D4. The antagonist activity was quantitated in terms of a pA2 value calculated according to the method described by Arunlakshana and Schild, (Brit. J. Pharmac. Chemotherap. 14; 48, 1959).

[2] = molecular target: T2, 3H-LTD4 specific receptor (guinea pig lung membranes) (Cavia porcellus, UniProt Q2NNR5); experiment: 3H-LTD4 specific receptor binding in guinea pig lung membranes; details: 3H-LTD4, 50 mM Tris-HCl pH 7.6, 37° C., 20-40 min; read-out: G.P. LUNG SPECIFIC BINDING IC50
T2 construct: from tissue; host or cells: guinea pig lung membranes
T2 sequence (Q2NNR5 1-340): T1 sequence (Q2NNR5 1-340)
Protocol: 3H-LTD4 - Specific Receptor Binding in Guinea Pig Lung Membranes
Male guinea pigs were sacrificed and the lungs were removed and placed in ice cold 50 mM Tris-HCl buffer, pH 7.4. The lungs were then homogenized with a Polytron homogenizer and the homogenate was centrifuged at 1000 g for 10 minutes at 4° C. The supernatant was then centrifuged at 30,000 g for 15 minutes at 4° C. to obtain the membrane pellet. This pellet was resuspended in 50 mM Tris-HCl to provide the working suspension of lung membranes. Binding assays were then carried out in 50 mM Tris-HCl at pH 7.6 and 37° C. using incubation periods of 20-40 min. Separation of bound ^3 H-LTD4 from free ^3 H-LTD4 were performed by rapid vacuum filtration through Whatman GF/B glass fiber filters using ice cold Tris-HCl buffer and three 4 ml washes. Filtration and washing were completed in less than 8 seconds. The radioactivity on the filters was then measured. Specific binding of ^3 H-LTD4 was defined as the binding of ^3 H-LTD4 in the absence of unlabelled LTD4 minus the binding of ^3 H-LTD4 in the presence of 2×10^-7 M unlabelled LTD4. Specific binding of ^3 H-LTD4 was 60-80% of total binding. […] In these tests increasing concentrations of the agent are used to block the ^3 H-LTD4 specific binding. The concentration that reduces the specific binding of ^3 H-LTD4 by 50% is termed the IC50.

[3] = system: leukotriene D4 (induced bronchoconstriction); experiment: In vivo leukotriene D4 antagonist activity in anesthetized guinea pigs, modified Konzett-Rossler preparation; parameters: species or system guinea pig; details: LTD4 50 or 100 ng/kg i.v.
Protocol: In Vivo Biological Activity
Compounds of the present invention were also tested for in vivo leukotriene D4 antagonist activity in anesthetized guinea pigs using a modified Konzett-Rossler preparation. Specifically, the guinea pigs were anesthetized with sodium pentobarbital and surgically prepared for artificial ventilation by a constant volume respirator. The inflation pressure produced by the respirator was measured for each inflation of the guinea pigs' lungs. Increases in inflation pressure above baseline are indicative of bronchoconstriction. After establishing a baseline inflation pressure, bronchoconstriction was induced by an intravenous challenge with 50 or 100 ng/kg leukotriene D4. This response was considered the initial response. After the inflation pressure returned to baseline, the guinea pig was treated with the desired dosage of test compound or vehicle, given intravenously (i.v.) or intraduodenally (i.d.), and rechallenged with leukotriene D at one minute [following i.v. administration]or 5 and 20 minutes [following i.d. administration]. This response was then compared to the initial response and the % inhibition of the response was determined. The results can be summarized as follows, with the inhibition values given for administration by the i.d. route being the greater of the two results obtained.

[4] = 1.0 mg/kg i.d., greater of results at 5 and 20 minutes

- Kb [1]: 0.158 nM
SMILES: CCCCCCCCCCCCC/C=C\[C@@H](SCC(=O)O)[C@]1(O)CC[C@H](C(=O)O)CC1 [Example 10D, [4(R)-[1α,4β,4(Z)]]-4-[1-[(carboxymethyl)thio]-2-hexadecenyl]-4-hydroxycyclohexanecarboxylic acid]

- IC50 [2]: 8700 nM
- Kb [1]: 0.245 nM
SMILES: CCCCCCCCCCCCC/C=C\C(SCCC(=O)O)[C@]1(O)CC[C@H](C(=O)O)CC1 (relative stereo) [Example 10H, [1α,4β,4(Z)]-4-[1-[(2-CarbOxyethyl)thio]-2-hexadecenyl]-4-hydroxycyclohexanecarboxylic acid]

- Kb [1]: 0.38 nM
SMILES: CCCCCCCCCCCCC/C=C\[C@@H](SCCC(=O)O)[C@]1(O)CC[C@H](C(=O)O)CC1 [Example 10F]
- PERCENT INHIBITION ([3]; 0.0002 mg/kg i.v., rechallenge at one minute): 38%
- PERCENT INHIBITION ([3]; 0.002 mg/kg i.v., rechallenge at one minute): 52%
- PERCENT INHIBITION ([3]; 0.02 mg/kg i.v., rechallenge at one minute): 94%
- PERCENT INHIBITION ([3]; 0.1 mg/kg i.d., greater of results at 5 and 20 minutes): 74%
- PERCENT INHIBITION ([3]; 0.2 mg/kg i.d., greater of results at 5 and 20 minutes): 93%

- IC50 [2]: 8000 nM
- Kb [1]: 2.69 nM
SMILES: CCCCCCCCCCCCC/C=C\C(SCCC(=O)NCC(=O)O)[C@]1(O)CC[C@H](C(=O)O)CC1 (relative stereo) [Example 10L, [1α,4β,4(Z)]-4-[1-[[3-[(carboxymethyl)amino]-3oxopropyl]thio]-2-hexadecenyl]-4-hydroxycyclohexanecarboxylic acid]
- PERCENT INHIBITION ([3]; 0.5 mg/kg i.v., rechallenge at one minute): 74%
- PERCENT INHIBITION [3, 4]: 25%

SMILES: CCCCCCCCCCCCC/C=C\C(SCCCC(=O)O)[C@]1(O)CC[C@@H](C(=O)O)CC1 (relative stereo) [Example 10I, [1α,4α,4(Z)]-4-[1-[(3-carboxypropyl)thio]-2-hexadecenyl]-4-hydroxycyclohexanecarboxylic acid]
- PERCENT INHIBITION ([3]; 0.05 mg/kg i.v., rechallenge at one minute): 19%

- IC50 [2]: 7100 nM
- Kb [1]: 5.5 nM
SMILES: CCCCCCCCCCCCC/C=C\C(SCCCC(=O)O)[C@]1(O)CC[C@H](C(=O)O)CC1 (relative stereo) [Example 10J, [1α,4β,4(Z)]-4-[1-[(3-carboxypropyl)thio]-2-hexadecenyl]-4-hydroxycyclohexanecarboxylic acid]
- PERCENT INHIBITION ([3]; 0.5 mg/kg i.d., greater of results at 5 and 20 minutes): 48%
- PERCENT INHIBITION [3, 4]: 53%

- G.P. ILEUM pA2 (LTD4) [1]: 7.87
SMILES: CCCCCCCCCCCCCC=CC(SCCC(=O)O)C1(O)CCC(C(=O)O)CC1 (stereo not drawn) [Example 11, [1α,4β,4(E)]-4-[1-[(2-carboxyethyl)thio-2hexadecenyl]-4-hydroxycyclohexanecarboxylic acid]

Reference: US4748274A, “4-hydroxy-4-(substituted alkenyl)cyclohexanecarboxylic acids” (Merrell Dow Pharmaceuticals Inc., priority 1986, dated 1988)
